Measured values taken from patent US12655116B2, “Substituted isophthalic acid diamides” (Bayer Aktiengesellschaft, priority 2020, dated 2026).

How the values were obtained:
ABUTH [1] = experiment: Pre-emergence herbicidal action against ABUTH; format: in vivo, Abutilon theophrasti; details: for Pre-emergence action against ABUTH (herbicidal activity): 80 g/ha, scored visually after 3 weeks vs untreated controls (100% = plants have died, 0% = like control plants); for Pre-emergence action against ABUTH (herbicidal activity in percent): dosage 20 g/ha, scored visually after 3 weeks vs untreated controls, 100% = plants have died, 0% = like control plants
Method in brief: (§1)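 Pre-emergence soil-surface spray of formulated compound (WP or EC; 600 to 800 l/ha; 0.2% wetting agent) over seeds sown in sandy loam. After 3 weeks under greenhouse conditions, damage is estimated visually in percent against untreated plants.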

ALOMY [2] = experiment: Pre-emergence herbicidal action against ALOMY; format: in vivo, Alopecurus myosuroides; details: 80 g/ha, pre-emergence, scored visually after 3 weeks vs untreated controls (100% = plants have died, 0% = like control plants)
Method in brief: as §1

AMARE [3] = experiment: Pre-emergence herbicidal action against AMARE; format: in vivo, Amaranthus retroflexus
Method in brief: as §1

AVEFA [4] = experiment: Pre-emergence herbicidal action against AVEFA; format: in vivo, Avena fatua; details: 80 g/ha, pre-emergence
Method in brief: as §1

ECHCG [5] = experiment: Pre-emergence herbicidal action against ECHCG; format: in vivo, Echinochloa crus-galli
Method in brief: as §1

HORMU [6] = experiment: Pre-emergence herbicidal action against HORMU; format: in vivo, Hordeum murinum; details: 80 g/ha, pre-emergence
Method in brief: as §1

LOLRI = experiment: Pre-emergence herbicidal action against LOLRI; format: in vivo, Lolium rigidum; details: 80 g/ha
Method in brief: as §1

MATIN [7] = experiment: Pre-emergence herbicidal action against MATIN; format: in vivo, Matricaria inodora
Method in brief: as §1

PHBPU [8] = experiment: Pre-emergence herbicidal action against PHBPU; format: in vivo, Pharbitis purpurea; details: dosage 80 g/ha
Method in brief: as §1

POLCO = experiment: Pre-emergence herbicidal action against POLCO; format: in vivo, Polygonum convolvulus; details: dosage 80 g/ha
Method in brief: as §1

SETVI [9] = experiment: Pre-emergence herbicidal action against SETVI; format: in vivo, Setaria viridis; details: dosage 80 g/ha
Method in brief: as §1

STEME [10] = experiment: Pre-emergence herbicidal action against STEME; format: in vivo, Stellaria media
Method in brief: as §1

VIOTR [11] = experiment: Pre-emergence herbicidal action against VIOTR; format: in vivo, Viola tricolor
Method in brief: as §1

DIGSA [12] = experiment: Pre-emergence herbicidal action against DIGSA; format: in vivo, Digitaria sanguinalis
Method in brief: as §1

ABUTH [13] = experiment: Post-emergence herbicidal action against ABUTH; format: in vivo, Abutilon theophrasti; details: visual assessment about 3 weeks after treatment vs untreated controls
Method in brief: (§2)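 Greenhouse plants in sandy loam were sprayed at the one-leaf stage, 2 to 3 weeks after sowing, with WP or EC formulations as aqueous suspension or emulsion (600 to 800 l/ha water, 0.2% wetting agent). Visual damage was scored about 3 weeks later versus untreated controls, 0% = like control, 100% = dead.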

ALOMY [14] = experiment: Post-emergence herbicidal action against ALOMY; format: in vivo, Alopecurus myosuroides; details: dosage 20 g/ha, visual assessment about 3 weeks after treatment vs untreated controls
Method in brief: as §2

AMARE [15] = experiment: Post-emergence herbicidal action against AMARE; format: in vivo, Amaranthus retroflexus; details: 20 g/ha, visual assessment about 3 weeks after treatment, 100% = plants have died, 0% = like control plants
Method in brief: as §2

AVEFA [16] = experiment: Post-emergence herbicidal action against AVEFA; format: in vivo, Avena fatua; details: visual assessment about 3 weeks after treatment, 100% = plants have died, 0% = like control plants
Method in brief: as §2

ECHCG [17] = experiment: Post-emergence herbicidal action against ECHCG; format: in vivo, Echinochloa crus-galli
Method in brief: as §2

HORMU [18] = experiment: Post-emergence herbicidal action against HORMU; format: in vivo, Hordeum murinum; details: dosage 20 g/ha
Method in brief: as §2

MATIN [19] = experiment: Post-emergence herbicidal action against MATIN; format: in vivo, Matricaria inodora
Method in brief: as §2

PHBPU [20] = experiment: Post-emergence herbicidal action against PHBPU; format: in vivo, Pharbitis purpurea
Method in brief: as §2

SETVI [21] = experiment: Post-emergence herbicidal action against SETVI; format: in vivo, Setaria viridis
Method in brief: as §2

STEME [22] = experiment: Post-emergence herbicidal action against STEME; format: in vivo, Stellaria media
Method in brief: as §2

VERPE [23] = experiment: Post-emergence herbicidal action against VERPE; format: in vivo, Veronica persica; details: 20 g/ha
Method in brief: as §2

VIOTR [24] = experiment: Post-emergence herbicidal action against VIOTR; format: in vivo, Viola tricolor
Method in brief: as §2

DIGSA [25] = experiment: Post-emergence herbicidal action against DIGSA; format: in vivo, Digitaria sanguinalis; details: for Post-emergence action against DIGSA in %: 5 g/ha; for Post-emergence action against DIGSA: 20 g/ha
Method in brief: as §2

VERPE [26] = experiment: Pre-emergence herbicidal action against VERPE; format: in vivo, Veronica persica; details: dosage 80 g/ha
Method in brief: as §1

[27] = 20 g/ha, scored visually after 3 weeks vs untreated controls, 100% = plants have died, 0% = like control plants
[28] = 80 g/ha, scored visually after 3 weeks vs untreated controls (100% = plants have died, 0% = like control plants)

CCNC(=O)c1c(C(F)(F)F)ccc(C(=O)Nc2nnco2)c1Cl [Example 5-117]
90%: Pre-emergence action against ALOMY (herbicidal activity) (ALOMY [2]) | Pre-emergence action against AMARE in % (AMARE [3]; [27]) | Pre-emergence action against AMARE in % (AMARE [3]; [28]) | Pre-emergence action against AVEFA in % (AVEFA [4]) | Pre-emergence action against MATIN in % (MATIN [7]; dosage 20 g/ha) | Pre-emergence action against SETVI in % (SETVI [9]) | Pre-emergence action against STEME in % (STEME [10]; dosage 20 g/ha) | Pre-emergence action against STEME in % (STEME [10]; dosage 80 g/ha) | Post-emergence action against ABUTH in % (ABUTH [13]; dosage 20 g/ha) | Post-emergence action at 20 g/ha against AVEFA in % (AVEFA [16]) | Post-emergence action against MATIN in % (MATIN [19]; dosage 20 g/ha) | Post-emergence action against PHBPU in % (PHBPU [20]; dosage 20 g/ha) | Post-emergence action against VIOTR in % (VIOTR [24]; 5 g/ha) | Post-emergence action against DIGSA in % (DIGSA [25]) | Post-emergence action against DIGSA (DIGSA [25])
100%: Pre-emergence action against ABUTH (herbicidal activity) (ABUTH [1]) | Pre-emergence action against ABUTH (herbicidal activity in percent) (ABUTH [1]) | Pre-emergence action against ECHCG in % (ECHCG [5]; 80 g/ha) | Pre-emergence action against MATIN in % (MATIN [7]; dosage 80 g/ha) | Pre-emergence action against PHBPU in % (PHBPU [8]) | Pre-emergence action against VIOTR in % (VIOTR [11]; dosage 20 g/ha) | Pre-emergence action against VIOTR in % (VIOTR [11]; dosage 80 g/ha) | Pre-emergence action against DIGSA in % (DIGSA [12]; dosage 20 g/ha) | Pre-emergence action against DIGSA in % (DIGSA [12]; dosage 80 g/ha) | Post-emergence action at 20 g/ha against AMARE in % (AMARE [15]) | Post-emergence action against SETVI in % (SETVI [21]; dosage 5 g/ha) | Post-emergence action against SETVI in % (SETVI [21]; dosage 20 g/ha) | Post-emergence action against STEME in % (STEME [22]; 20 g/ha) | Post-emergence action against STEME in % (STEME [22]; dosage 5 g/ha) | Post-emergence action against VIOTR in % (VIOTR [24]; 20 g/ha)
80%: Pre-emergence action against ECHCG in % (ECHCG [5]; 20 g/ha) | Pre-emergence action against HORMU in % (HORMU [6]) | Pre-emergence action against LOLRI in % (LOLRI) | Pre-emergence action against POLCO in % (POLCO) | Post-emergence action against ABUTH in % (ABUTH [13]; dosage 5 g/ha) | Post-emergence action against ALOMY in % (ALOMY [14]) | Post-emergence action at 5 g/ha against AVEFA in % (AVEFA [16]; 5 g/ha) | Post-emergence action against ECHCG in % (ECHCG [17]; dosage 5 g/ha) | Post-emergence action against ECHCG in % (ECHCG [17]; dosage 20 g/ha) | Post-emergence action against HORMU in % (HORMU [18]) | Post-emergence action against MATIN in % (MATIN [19]; dosage 5 g/ha) | Post-emergence action against PHBPU in % (PHBPU [20]; dosage 5 g/ha) | Post-emergence action against VERPE in % (VERPE [23])

CCn1nnnc1NC(=O)c1ccc(C(F)F)c(C(=O)NC)c1SC [Example 2-87]
80%: Pre-emergence action against ALOMY (herbicidal activity) (ALOMY [2]) | Pre-emergence action against ECHCG in % (ECHCG [5]; 20 g/ha) | Pre-emergence action against HORMU in % (HORMU [6]) | Pre-emergence action against LOLRI in % (LOLRI) | Pre-emergence action against PHBPU in % (PHBPU [8]) | Post-emergence action against ALOMY in % (ALOMY [14]) | Post-emergence action at 20 g/ha against AVEFA in % (AVEFA [16]) | Post-emergence action against ECHCG in % (ECHCG [17]; dosage 5 g/ha) | Post-emergence action against ECHCG in % (ECHCG [17]; dosage 20 g/ha) | Post-emergence action against HORMU in % (HORMU [18]) | Post-emergence action against MATIN in % (MATIN [19]; dosage 5 g/ha) | Post-emergence action against PHBPU in % (PHBPU [20]; dosage 5 g/ha) | Post-emergence action against PHBPU in % (PHBPU [20]; dosage 20 g/ha) | Post-emergence action against SETVI in % (SETVI [21]; dosage 5 g/ha) | Post-emergence action against SETVI in % (SETVI [21]; dosage 20 g/ha) | Post-emergence action against STEME in % (STEME [22]; dosage 5 g/ha) | Post-emergence action against VERPE in % (VERPE [23])
100%: Pre-emergence action against ABUTH (herbicidal activity) (ABUTH [1]) | Pre-emergence action against ABUTH (herbicidal activity in percent) (ABUTH [1]) | Pre-emergence action against AMARE in % (AMARE [3]; [27]) | Pre-emergence action against AMARE in % (AMARE [3]; [28]) | Pre-emergence action against ECHCG in % (ECHCG [5]; 80 g/ha) | Pre-emergence action against SETVI in % (SETVI [9]) | Pre-emergence action against STEME in % (STEME [10]; dosage 20 g/ha) | Pre-emergence action against STEME in % (STEME [10]; dosage 80 g/ha) | Pre-emergence action against DIGSA in % (DIGSA [12]; dosage 20 g/ha) | Pre-emergence action against DIGSA in % (DIGSA [12]; dosage 80 g/ha) | Post-emergence action against VIOTR in % (VIOTR [24]; 20 g/ha)
90%: Pre-emergence action against AVEFA in % (AVEFA [4]) | Pre-emergence action against MATIN in % (MATIN [7]; dosage 20 g/ha) | Pre-emergence action against MATIN in % (MATIN [7]; dosage 80 g/ha) | Pre-emergence action against VERPE in % (VERPE [26]) | Pre-emergence action against VIOTR in % (VIOTR [11]; dosage 20 g/ha) | Pre-emergence action against VIOTR in % (VIOTR [11]; dosage 80 g/ha) | Post-emergence action against ABUTH in % (ABUTH [13]; dosage 5 g/ha) | Post-emergence action against ABUTH in % (ABUTH [13]; dosage 20 g/ha) | Post-emergence action at 20 g/ha against AMARE in % (AMARE [15]) | Post-emergence action against MATIN in % (MATIN [19]; dosage 20 g/ha) | Post-emergence action against STEME in % (STEME [22]; 20 g/ha) | Post-emergence action against DIGSA in % (DIGSA [25]) | Post-emergence action against DIGSA (DIGSA [25])
